# Entries after “also recorded” stand apart in the source; their conditions may differ.
# What was measured:
# [1] = system: phosphorylated MAPK 1/2; assay: Heregulin-induced MAPK phosphorylation in ZR75-1 cells (Western blot); assay type: cell-based, human; conditions: ZR75-1 cells (LL-37 expressing), Heregulin 2 ng/ml, 20 min
# Procedure: ZR75-1 cells were treated for 20 min with Heregulin (2 ng/ml), LL-25 or LL-37 or in combination as indicated. Protein extracts were analysed by Western blot analysis against phosphorylated MAPK.
# ZR75-1 ells were grown in Optimem and 10% FCS, and plated in 12-well plates at 100 000 cells/well, corresponding 70% confluency. After reattachment, cells were starved for 48 hours in DMEM, no FCS. Test substrate dissolved in 50 μl PBS were added to the medium, and cells were incubated for 20 min. The stimulation was stopped by washing the cells with ice-cold PBS containing 1 mM NaF, 100 μM Na3VO4, and 2 mM PMSF, and then lysed in 300 μl SDS lysis buffer containing the inhibitors as above. Proteins were separated in an 8% gel, and blotted to nitrocellulose filters according to standard conditions. Filters were reversibly stained with 3% Ponceau S, blocked with 4% NFDM in TBS/0.1% Tween20, and incubated o.n. with the primary antibody. For detection of phosphorylated MAPK 1/2 (pThr 202/pTyr 204), a monoclonal antibody (Cell Signaling Inc) was used at 1/2000. […] The signal was captured in a CCD camera (Fuji, Tokyo, Japan) for 1 min, and evaluated by Image Gauge Software. For quantification, the signals were normalized against the Ponceau S staining that had been scanned in and quantified using the same software.
# [2] = system: phosphorylated MAPK; assay: Competitive inhibition of LL-37 on Heregulin-induced MAPK phosphorylation in MCF7 cells (Western blot); assay type: cell-based, human; conditions: Heregulin 2 ng/ml
# Procedure: Heregulin (2 ng/ml) was added to the breast cancer line MCF7, which produces virtually no LL-37 on its own, together with LL-37 (2 μM) and LL-25 at concentrations as indicated. In the control experiments, the solvent (PBS), or LL-37, LL-25 or heregulin (HRG) were added as the only substrates. The quantitative evaluation of triplicate measurements is shown together with the Western blot of one of the triplicates.
# ZR75-1 ells were grown in Optimem and 10% FCS, and plated in 12-well plates at 100 000 cells/well, corresponding 70% confluency. After reattachment, cells were starved for 48 hours in DMEM, no FCS. Test substrate dissolved in 50 μl PBS were added to the medium, and cells were incubated for 20 min. […] The signal was captured in a CCD camera (Fuji, Tokyo, Japan) for 1 min, and evaluated by Image Gauge Software. For quantification, the signals were normalized against the Ponceau S staining that had been scanned in and quantified using the same software.
# In a further experiment, Heregulin (2 ng/ml) was added to the breast cancer line MCF7, which produces virtually no LL-37 on its own, together with exogenous LL-37 (2 μM) and LL-25 at concentrations as indicated. […] The quantitative evaluation of triplicate measurements is shown together with the Western blot of one of the triplicates.
# [3] = system: HaCaT cells; assay: Pertussis toxin assay (LL-37 induced HaCaT cell proliferation); assay type: cell-based, human; conditions: pertussis toxin 20 ng/ml preincubated 24 h before LL-37 at 5 or 10 μg per ml, data not shown
# Procedure: To assess the involvement of FPRL1 in mediating the stimulation of epithelial cell proliferation induced by hCAP18/LL-37, HaCaT cells were treated with the G-protein-coupled receptor inhibitor pertussis toxin. Cells were preincubated with pertussis toxin (Sigma-Aldrich, Switzerland) 24 h before the LL-37 treatment in a final toxin concentration of 20 ng/ml. Medium was changed 48 hours after cell seeding and the HaCaT cells were treated with 100 μl of medium (DMEM+5% FCS and PEST) containing synthetic biologically active LL-37 peptide at 5 or 10 μg per ml respectively. Cells treated with only DMEM+5% FCS and PEST served as control.
# [4] = Antibacterial assay of synthetic LL-37 peptide
# From the text: LL-37 peptide was synthesised and purified by HPLC to a purity of 98% (PolyPeptide Laboratories A/S, Hillerød, Denmark). Biological activity of the peptide was confirmed in an antibacterial assay ^18.
# [5] = system: ERK1/2; assay: Assay of phosphorylated ERK1/2 in LL-37 treated HaCaT cells (Western blot); assay type: cell-based, human; conditions: LL-37 10 μg/ml, 48 hours, 1% or 5% FCS
# Procedure: HaCaT cells were seeded at 10% confluence and kept in DMEM with 0.2% FCS for 36 hours. For the next 48 hours, cells were cultured in DMEM with 1% or 5% FCS respectively, and in presence or absence of LL-37 at 10 μg/ml, with daily changes of medium. EGF at 10 ng/ml served as positive control. The expression of phosphorylated ERK 1/2 was evaluated by Western blot analysis with a mouse monoclonal antibody (Cell Signaling Technology, Beverly Mass.).
# [6] = system: HaCaT cells; assay: LL-37 peptide treatment of epithelial cells, proliferation by [3H]-Thymidine incorporation; assay type: cell-based, human; conditions: serum starved 72 hours, LL-37 10 μg/ml, DMEM+5% FCS, versus non treated control
# Procedure: A spontaneously immortalised human keratinocyte cell line (HaCaT) ^19 was cultured in DMEM (Dulbecco's modified Eagle's medium, Gibco BRL, Life Technologies, Scotland) supplemented with 10% FCS (fetal calf serum, Hy-Clone, Boule Nordic AB Huddinge, Sweden) and antibiotics (PEST=penicillin 50 U/l and streptomycin […], Gibco BRL). Cells were harvested at 70% confluence and seeded in 96-well plates, 2000 cells in 100 μl medium (DMEM+10% FCS and PEST). After 12 hours, medium was changed to serum free medium (DMEM+PEST) and cells were synchronized in G0/G1 by serum starvation for 72 hours and then treated with 100 μl of medium (DMEM+5% FCS+PEST) containing synthetic biologically active LL-37 peptide at 10 μg per ml. Cells treated with only DMEM+5% FCS and PEST served as control. The experiments were performed in quadruplicates. Cell proliferation was evaluated by [^3H]-Thymidine incorporation. Cells were treated with 1 μCi/well of [^3H]-Thymidine (20.00 Ci/mmol, Perkin Elmer Life Sciences Inc. Boston, Mass.) during 12 hours and harvested (Harvester 96, Tomtec, Orage, Conn.) onto a glass fiber filter (Wallac Oy Turku, Finland). The incorporation of [^3H]-Thymidine was determined using a liquid scintillation counter (Microbeta Pluss, Wallac Sveriges AB). The experiment was repeated twice in 6 replicates.
substance,measurement,setting,value
"LLGDFFRKSKEKIGKEFKRIVQRIK (listed as Homo sapiens) [LL-25, N-terminal 25 amino acids of the C-terminal LL-37 peptide derived from human cathelicidin antimicrobial protein hCAP18]",effect on MAPK phosphorylation through Heregulin,[1],inhibits MAPK phosphorylation
same,blocking of the endogenous LL-37 contribution to MAPK activation through HRG,[2],can significantly be blocked by LL-25
same,inhibition of LL-37 on Heregulin-induced MAPK phosphorylation,"[2]; exogenous LL-37 2 μM, LL-25 at varied concentrations","competitive and highly efficient inhibitor to LL-37, even at 10% of the concentration of LL-37"
pertussis toxin,suppression of LL-37 stimulated proliferation by pertussis toxin pretreatment,[3],approximately 50%
"LLGDFFRKSKEKIGKEFKRIVQRIKDFLRNLVPRTES (listed as Homo sapiens) [LL-37, C-terminal peptide of human cathelicidin antimicrobial protein hCAP18; synthesised, HPLC purity 98%]",biological activity in antibacterial assay,[4],confirmed
same,activation of ERK1/2 (phosphorylated ERK1/2),[5],no significant activation of ERK1/2
same,cell proliferation ([3H]-Thymidine incorporation),[6],significantly increased cell proliferation; also recorded: significant increase in cell proliferation

# From patent US20100056431A1, “MEDICAL USES” (priority 2006, published 2010)
